Data set [1] has as its target T1, human β3GalT5 (β1,3-galactosyltransferase 5) (Homo sapiens, UniProt Q9Y2C3).
T1 construct: gene B3GALT5; recombinant luminal catalytic domain Phe31-Pro308 (crystallised construct), transmembrane domain removed; N-glycosylated
T1 sequence (Q9Y2C3 31-308): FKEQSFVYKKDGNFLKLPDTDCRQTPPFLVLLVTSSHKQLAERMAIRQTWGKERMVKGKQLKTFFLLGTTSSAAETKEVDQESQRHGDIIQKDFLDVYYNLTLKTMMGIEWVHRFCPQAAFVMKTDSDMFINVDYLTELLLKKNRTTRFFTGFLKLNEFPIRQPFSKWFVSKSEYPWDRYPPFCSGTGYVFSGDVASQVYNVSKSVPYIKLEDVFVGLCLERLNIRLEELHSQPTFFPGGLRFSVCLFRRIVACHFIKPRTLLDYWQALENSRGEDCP
Nature of the data set: galactosyltransfer kinetics (details in supplement). Conditions: acceptor; donor UDP-Gal; crystal structure of the complex also solved. In kind it is biochemical.

The target in data set [2] is T1, human β3GalT5 (β1,3-galactosyltransferase 5). Briefly: X-ray crystallography. In kind it is binding. The conditions noted are these: Mn2+; donor site; with Gb5 glycan bound.
Data set [3] has the same target. Briefly: X-ray crystallography (cocrystallisation). In kind it is binding. Conditions: Mn2+; donor site; inert donor analogue.
Substrate in data set [4]: CC(=O)N[C@H]1[C@H](O[C@H]2[C@@H](O)[C@@H](CO)O[C@H](O[C@H](C)[C@H](N)C(=O)O)[C@@H]2NC(C)=O)O[C@H](CO)[C@@H](O)[C@@H]1O
Briefly: galactosyltransfer kinetics (details in supplement). In kind it is biochemical, Homo sapiens. The conditions noted are these: acceptor; donor UDP-Gal; crystal structure of the complex also solved.

Substrate in data set [5]: COC1O[C@H](CO)[C@H](O)[C@H](O[C@@H]2O[C@H](CO)[C@@H](O)[C@H](O)[C@H]2NC(C)=O)[C@H]1O
The data set is described as above. The conditions noted are these: acceptor; donor UDP-Gal; crystal structure of the complex also solved. In kind it is biochemical, Homo sapiens.

Take `CC(=O)N[C@H]1[C@H](O[C@H]2[C@@H](O)[C@@H](CO)O[C@H](O[C@@H]3[C@H](O)[C@@H](O)[C@H](O[C@H]4[C@H](O)[C@@H](O)C(O)O[C@@H]4CO)O[C@@H]3CO)[C@@H]2O)O[C@H](CO)[C@H](O)[C@@H]1O` (some centres unmarked) [Gb4 glycan]: the Km (commonly the substrate concentration at which the rate is half of its maximum) in data set [1] worked out at 2000 µM.

For `O=c1ccn([C@@H]2O[C@H](COP(=O)(O)OP(=O)(O)O)[C@@H](O)[C@H]2O)c(=O)[nH]1` [UDP], the X-ray crystallography result in data set [2] is “β3GalT5 cocrystallized with UDP and soaked with the product Gb5 (SSEA3) glycan”.

On to `O=c1ccn([C@@H]2O[C@H](COP(=O)(O)OP(=O)(O)O[C@H]3O[C@H](CO)[C@H](O)[C@H](O)[C@H]3F)[C@@H](O)[C@H]2O)c(=O)[nH]1` [UDP-2FGal, UDP-2-deoxy-2-fluoro-α-D-galactopyranose], for which the “X-ray crystallography (cocrystallisation)” value in data set [3] is recorded as “employed an inert analog of the sugar nucleotide donor, UDP-2-deoxy-2-fluoro-α-D-galactopyranose (UDP-2FGal) for cocrystallization with β3GalT5”.

B1: human β3GalT5 (β1,3-galactosyltransferase 5) (Homo sapiens) (protein)
chain: T1 sequence (Q9Y2C3 31-308)
notes: recombinant luminal catalytic domain Phe31-Pro308 (crystallised construct), transmembrane domain removed; N-glycosylated
B1: the Km in data set [4] is 750 µM; in data set [5], 500 µM.

Source of the values: article PMC11969544, “Structure-Based Mechanism and Specificity of Human Galactosyltransferase β3GalT5” (Journal of the American Chemical Society, 2025).
